Converted amounts (≈) assume the structure as drawn. A value given as a limit tells only on which side of the number the result lay.

Here are results for 33 compounds from US7563788B2, “Substituted Imidazo[1,2-a]pyridines as Antibacterial Agents” (Pfizer Inc., priority 2004, dated 2009).

The test deals with Neisseria gonorrhoeae, GC525 (NG-2888). The test can be described thus: In-vitro antibacterial activity, microbroth dilution MIC susceptibility testing. As to conditions: gonococcal broth, 20-24 hours at 35° C., lowest concentration preventing visible growth. In kind it is cell-based. How it is done:
The in-vitro antibacterial activity of selected compounds was determined against a stain of Neisseria gonorrhoeae, GC525 (NG-2888), which is described by Rouquette-Loughlin et al, in Journal of Bacteriology, February 2003, p. 1101-1106, at p. 1103. In general, minimum inhibitory concentration (MIC) susceptibility testing followed procedures recommended by the National Committee for Clinical Laboratory Standards (NCCLS^1-2) or followed the descriptions described below:
Neisseria gonorrhoeae strains were grown on Chocolate Agar II plates (BBL—Becton Dickinson Microbiology Systems, Cockeysville, Md.) and incubated at 35° C. in a humidified 5% CO2 incubator (Forma Scientific, Marietta Ohio). For microbroth dilution MIC testing, N. gonorrhoeae were tested in gonococcal broth (GCB):
Bacterial culture identifications were confirmed by standard microbiological methods.^4 N. gonorrhoeae strains were streaked onto appropriate agar plates for visualization of purity and expected colony morphology. Gram stains were also utilized.
Bacterial stock cultures are stored as frozen suspensions at −70° C. N. gonorrhoeae cultures are suspended in inactivated Horse Serum (Colorado Serum Company, Denver, Colo.) containing 7.5% glucose prior to snap freezing in a dry ice/ethanol bath.
Frozen stock cultures were used as the initial source of organisms for performing microbroth dilution MIC testing. Stock cultures were passed on their respective growth medium at least one growth cycle (18-24 hours) prior to their use. Bacterial culture suspensions were prepared directly from Chocolate Agar II plates into 10 mL cation-adjusted Mueller-Hinton Broth (CAMHB, BBL, # BB215069). Before use, cultures were adjusted to an optical density value of […] on a Perkin-Elmer Lambda EZ150 Spectrophotometer (Wellesley, Mass.) set at a wavelength of 600 nm. Random cultures were plated for validation of actual colony counts. The adjusted cultures were diluted 400-fold (0.25 mL inoculum+100 mL GCB) into gonococcal broth producing a starting inoculum of approximately 5×10^5 cfu/mL. These cultures were inoculated into test plates (100 uL/well) using a Biomek® FX workstation (Beckman Coulter Inc., Fullerton, Calif.). The inoculated plates were placed in stacks of no more than 4 and covered with an empty plate. Plates were incubated for 20-24 hours at 35° C. in a humidified CO2 incubator.
Drug stock solutions (2 mg/mL in DMSO) were prepared on the day of testing. Drugs were weight corrected for assay content where necessary.
Microbroth dilution stock plates were prepared in two dilution series, 64-0.06 ug drug/mL and 1-0.001 ug drug/mL. For the high concentration series, 200 uL of stock solution (2 mg/mL) was added to duplicate rows of a 96-well plate. This was used as the first well in the dilution series. Serial two-fold decremental dilutions were made using a BioMek FX robot (Beckman Coulter Inc., Fullerton, Calif.) with 10 of the remaining 11 wells, each of which contained 100 uL of the appropriate solvent/diluent. Row 12 contained solvent/diluent only and served as the control. For tube one of the low concentration series, 200 uL of a 31.25 ug/mL stock was added to duplicate rows of a 96-well plate. Serial two-fold dilutions were made as described above.
Daughter plates were spotted (3.2 uL/well) from the stock plates listed above using the BioMek FX robot and were inoculated with organism (100 uL/well) as described previously.
After incubation, the degree of growth in each well was read visually with the aid of a Test Reading Mirror (Dynatech Lab 220-16, Dynex Technologies, Chantilly, Va.). 96-well test plates are read in a darkened room with a single light shining from above. The MIC is the lowest concentration of drug that prevents macroscopically visible growth under the conditions of the test. Each drug dilution series was tested in duplicate; identical results are not always obtained. If MIC values in duplicate tests differ by 1 well (two-fold), the […] value is reported. […]

Take `CCOC(=O)Nc1cn2ccc(-c3cccnc3)cc2n1` [Example 1A, (7-Pyridin-3-yl-imidazo[1,2-a]pyridin-2-yl)-carbamic Acid Ethyl Ester]: the minimum inhibitory concentration (MIC) is > 64 µg/mL.

`CCNC(=O)Nc1cn2ccc(-c3cccnc3)cc2n1` [Example 1B, 1-Ethyl-3-(7-pyridin-3-yl-imidazo[1,2-a]pyridin-2-yl)-urea] showed an MIC of 16 µg/mL (≈ 56.9 µM).

With `CCOC(=O)Nc1cn2cnc(-c3cccnc3)cc2n1` [Example 5, (7-Pyridin-3-yl-imidazo[1,2-c]pyrimidin-2-yl)-carbamic Acid Ethyl Ester], the MIC was > 64 µg/mL.

`CCNC(=O)Nc1cn2ccc(-c3ccc(OCCN4CCOCC4)nc3)cc2n1` [Example 6, 1-Ethyl-3-{7-[6-(2-morpholin-4-yl-ethoxy)-pyridin-3-yl]-imidazo[1,2-a]pyridin-2-yl}-urea] displayed an MIC of 45.3 µg/mL (≈ 110 µM).

In turn, `CCNC(=O)Nc1cn2c(CO)cc(-c3cccnc3)cc2n1` [Example 7A, 1-Ethyl-3-(5-hydroxymethyl-7-pyridin-3-yl-imidazo[1,2-a]pyridin-2-yl)-urea] came in with an MIC of 5.66 µg/mL (≈ 18.2 µM).

In turn, `CCNC(=O)Nc1cn2c(C(=O)OC)cc(-c3cccnc3)cc2n1` [Example 7B, 2-(3-Ethyl-ureido)-7-pyridin-3-yl-imidazo[1,2-a]pyridine-5-carboxylic Acid Methyl Ester] came in with an MIC of 0.5 µg/mL (≈ 1.47 µM).

Compound `CCNC(=O)Nc1cn2ccc(-c3cncnc3)cc2n1` [Example 8, 1-Ethyl-3-(7-pyrimidin-5-yl-imidazo[1,2-a]pyridin-2-yl)-urea] displayed an MIC of 5.66 µg/mL (≈ 20 µM).

In the case of `CCNC(=O)Nc1cn2ccc(-c3c(C)noc3C)cc2n1` [Example 9, 1-[7-(3,5-Dimethyl-isoxazol-4-yl)-imidazo[1,2-a]pyridin-2-yl]-3-ethyl-urea], the MIC is > 64 µg/mL.

As for `CCNC(=O)Nc1cn2ccc(-c3cnn(Cc4ccccc4)c3)cc2n1` [Example 10, 1-[7-(1-Benzyl-1H-pyrazol-4-yl)-imidazo[1,2-a]pyridin-2-yl]-3-ethyl-urea], 8 µg/mL (≈ 22.2 µM) was the least that counted as inhibitory (MIC).

With `CCNC(=O)Nc1cn2ccc(-c3ccc(N4CCN(C)CC4)nc3)cc2n1` [Example 11, 1-Ethyl-3-{7-[6-(4-methyl-piperazin-1-yl)-pyridin-3-yl]-imidazo[1,2-a]pyridin-2-yl}-urea], the MIC was found to be 64 µg/mL (≈ 169 µM).

The compound `CCNC(=O)Nc1cn2ccc(-c3cnn(C)c3)cc2n1` [Example 12, 1-Ethyl-3-[7-(1-methyl-1H-pyrazol-4-yl)-imidazo[1,2-a]pyridin-2-yl]-urea] yielded an MIC of 64 µg/mL (≈ 225 µM).

As to `CCNC(=O)Nc1cn2ccc(-c3cnc(OC)nc3OC)cc2n1` [Example 13, 1-[7-(2,4-Dimethoxy-pyrimidin-5-yl)-imidazo[1,2-a]pyridin-2-yl]-3-ethyl-urea], the MIC was > 64 µg/mL.

`CCNC(=O)Nc1cn2ccc(-c3c(C)nn(C(=O)OC(C)(C)C)c3C)cc2n1` [Example 14, 4-[2-(3-Ethyl-ureido)-imidazo[1,2-a]pyridin-7-yl]-3,5-dimethyl-pyrazole-1-carboxylic Acid Tert-Butyl Ester] had an MIC of 64 µg/mL (≈ 161 µM).

`CCNC(=O)Nc1cn2ccc(-c3cn[nH]c3)cc2n1` [Example 15, 1-Ethyl-3-[7-(1H-pyrazol-4-yl)-imidazo[1,2-a]pyridin-2-yl]-urea] yielded an MIC of 64 µg/mL (≈ 237 µM).

Compound `CCNC(=O)Nc1nc2cc(-c3cccnc3)ccn2c1Cl` [Example 16, 1-(3-Chloro-7-pyridin-3-yl-imidazo[1,2-a]pyridin-2-yl)-3-ethyl-urea] came in with an MIC of 64 µg/mL (≈ 203 µM).

For the compound `CCNC(=O)Nc1nc2cc(-c3cnc(N(C)C)nc3)ccn2c1Cl` [Example 17, 1-[3-Chloro-7-(2-dimethylamino-pyrimidin-5-yl)-imidazo[1,2-a]pyridin-2-yl]-3-ethyl-urea], the MIC was > 32 µg/mL.

As to `CCNC(=O)Nc1cn2ccc(C(=O)OC)cc2n1` [Example 18, 2-(3-Ethyl-ureido)-imidazo[1,2-a]pyridine-7-carboxylic Acid Methyl Ester], the MIC is > 64 µg/mL.

`CCNC(=O)Nc1cn2ccc(C(N)=O)cc2n1` [Example 19, 2-(3-Ethyl-ureido)-imidazo[1,2-a]pyridine-7-carboxylic Acid Amide]: the MIC is > 64 µg/mL.

As for `CCNC(=O)Nc1cn2ccc(-c3nc(C)n[nH]3)cc2n1` [Example 20, 1-Ethyl-3-[7-(5-methyl-2H-[1,2,4]triazol-3-yl)-imidazo[1,2-a]pyridin-2-yl]-urea], the MIC is > 64 µg/mL.

Consider `CCNC(=O)Nc1cn2ccc(-c3noc(C)n3)cc2n1` [Example 22, 1-Ethyl-3-[7-(5-methyl-[1,2,4]oxadiazol-3-yl)-imidazo[1,2-a]pyridin-2-yl]-urea], for which the MIC was > 64 µg/mL.

As for `CCNC(=O)Nc1cn2c(-c3cnn(C)c3)cc(-c3cccnc3)cc2n1` [Example 23, 1-Ethyl-3-[5-(1-methyl-1H-pyrazol-4-yl)-7-pyridin-3-yl-imidazo[1,2-a]pyridin-2-yl]-urea], the MIC came out at 0.13 µg/mL (≈ 0.36 µM).

For the compound `CCNC(=O)Nc1cn2ccc(C(=O)O)cc2n1` [Example 24, 2-(3-Ethyl-ureido)-imidazo[1,2-a]pyridine-7-carboxylic Acid], the MIC was > 64 µg/mL.

The compound `CCNC(=O)Nc1cn2ccc(-c3c(C)n[nH]c3C)cc2n1` [Example 25, 1-[7-(3,5-Dimethyl-1H-pyrazol-4-yl)-imidazo[1,2-a]pyridin-2-yl]-3-ethyl-urea] gave an MIC of 64 µg/mL (≈ 215 µM).

Turning to `O=C(Nc1cn2ccc(-c3cncnc3)cc2n1)NC1CC1` [Example 27, 1-Cyclopropyl-3-(7-pyrimidin-5-yl-imidazo[1,2-a]pyridin-2-yl)-urea], the minimal inhibitory concentration (MIC) came to 64 µg/mL (≈ 217 µM).

`O=C(NCC1CC1)Nc1cn2ccc(-c3cncnc3)cc2n1` [Example 28, 1-Cyclopropylmethyl-3-(7-pyrimidin-5-yl-imidazo[1,2-a]pyridin-2-yl)-urea] gave a minimum inhibitory concentration (MIC) of 32 µg/mL (≈ 104 µM).

For the compound `CCCNC(=O)Nc1cn2ccc(-c3cncnc3)cc2n1` [Example 29, 1-Propyl-3-(7-pyrimidin-5-yl-imidazo[1,2-a]pyridin-2-yl)-urea], it took 16 µg/mL (≈ 54 µM) to inhibit growth (MIC).

In turn, `CC(C)NC(=O)Nc1cn2ccc(-c3cncnc3)cc2n1` [Example 30, 1-Isopropyl-3-(7-pyrimidin-5-yl-imidazo[1,2-a]pyridin-2-yl)-urea] displayed an MIC of 32 µg/mL (≈ 108 µM).

Regarding `O=C(NCC(F)(F)F)Nc1cn2ccc(-c3cncnc3)cc2n1` [Example 31, 1-(7-Pyrimidin-5-yl-imidazo[1,2-a]pyridin-2-yl)-3-(2,2,2-trifluoro-ethyl)-urea], it took 64 µg/mL (≈ 190 µM) to inhibit growth (MIC).

On to `COCCNC(=O)Nc1cn2ccc(-c3cncnc3)cc2n1` [Example 32, 1-(2-Methoxy-ethyl)-3-(7-pyrimidin-5-yl-imidazo[1,2-a]pyridin-2-yl)-urea], for which the minimal inhibitory concentration (MIC) was > 64 µg/mL.

`O=C(Nc1cn2ccc(-c3cncnc3)cc2n1)NC1CCC1` [Example 33, 1-Cyclobutyl-3-(7-pyrimidin-5-yl-imidazo[1,2-a]pyridin-2-yl)-urea] yielded an MIC of 16 µg/mL (≈ 51.9 µM).

As for `CCNC(=O)Nc1cn2ccc(-c3ccc(N)nc3)cc2n1` [Example 34, 1-[7-(6-Amino-pyridin-3-yl)-imidazo[1,2-a]pyridin-2-yl]-3-ethyl-urea], the MIC is 16 µg/mL (≈ 54 µM).

Compound `CCNC(=O)Nc1cn2ccc(C(C)=O)cc2n1` [Example 35, N-(7-acetylimidazo[1,2-a]pyridin-2-yl)-N′-ethylurea] came in with an MIC of 64 µg/mL (≈ 260 µM).

Regarding `CCNC(=O)Nc1cn2ccc(-c3nnc(C)o3)cc2n1` [Example 36, 1-Ethyl-3-[7-(5-methyl-[1,3,4]oxadiazol-2-yl)-imidazo[1,2-a]pyridin-2-yl]-urea], the MIC was 64 µg/mL (≈ 224 µM).
